We go through 34 molecules from US9073881B2, “Benzoic acid derivatives” (HOFFMANN-LA ROCHE INC., priority 2011, dated 2015).

A value given as a limit tells only on which side of the number the result lay.

This test deals with Human eIF4E (Homo sapiens (Human), UniProt P06730). In words: Human eIF4E/4G binding assay (time-resolved fluorescence, HH-eIF4E and biotin-labeled 4G2 peptide). Particulars: inhibition of binding of His-tagged human eIF4E (aa 28-217) to biotin-labeled 4G2 peptide. Here is the method:
The protein was solubilized with 8 M urea and purified under denaturing conditions using nickel-charged HisTrap HP columns (GE Healthcare). The protein was refolded by diluting to approximately 0.25 mg/mL with 6 M urea, 20 mM Hepes pH 7.0, 500 mM NaCl, 1 mM DTT, 1 mM EDTA, and 0.5 M arginine.HCl, and then dialyzing overnight into the same buffer without the urea. The protein was further dialyzed into 20 mM Hepes pH 6.5, 50 mM NaCl, 1 mM EDTA, and 1 mM DTT, filtered, and then concentrated using Hitrap SP sepharose FF columns (GE Healthcare). The protein was dialyzed into 20 mM Hepes pH 7.0, 500 mM NaCl, 5 mM DTT, and 10% glycerol and stored at −80° C. until use. Test compounds (1.6 mM stock in DMSO) were diluted 3 fold in series in DMSO. Compound solutions were diluted 4 fold in Assay Buffer (50 mM sodium phosphate, pH 6.5, 50 mM KCl, 1 mM DTT and 0.5 mg/mL gammaglobulin). […] The samples were incubated at room temperature for 20 minutes. […] IC50 values were calculated using Condoseo software (Genedata AG).

Sequence of Human eIF4E (P06730 28-217): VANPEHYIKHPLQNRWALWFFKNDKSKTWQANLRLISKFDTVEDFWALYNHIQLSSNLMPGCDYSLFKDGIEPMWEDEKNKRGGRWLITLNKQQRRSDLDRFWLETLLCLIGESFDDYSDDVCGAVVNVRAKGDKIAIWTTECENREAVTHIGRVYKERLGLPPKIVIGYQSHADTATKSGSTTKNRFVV

For the molecule `O=C(O)c1cc(-c2nc(-c3ccc(OC(F)(F)F)cc3)cs2)ccc1-c1ccccc1[N+](=O)[O-]` [Example 2, 2′-Nitro-4-[4-(4-trifluoromethoxy-phenyl)-thiazol-2-yl]-biphenyl-2-carboxylic acid], the concentration for half-maximal inhibition (IC50) (usually the concentration that gives 50% inhibition) was found to be 2.6 µM. That is a single-digit micromolar value. `O=C(O)c1cc(-c2nc(-c3ccc(OC(F)F)cc3)cs2)ccc1-c1ccccc1[N+](=O)[O-]` [Example 3, 4-[4-(4-Difluoromethoxy-phenyl)-thiazol-2-yl]-2′-nitro-biphenyl-2-carboxylic acid] had a half-inhibitory concentration (IC50) of 9.9 µM. As to `O=C(O)c1cc(-c2nc(-c3ccc(Cl)c(Cl)c3)cs2)ccc1-c1cc(C(F)(F)F)ccc1[N+](=O)[O-]` [Example 4, 4-[4-(3,4-Dichloro-phenyl)-thiazol-2-yl]-2′-nitro-5′-trifluoromethyl-biphenyl-2-carboxylic acid], the 50% inhibitory concentration (IC50) amounted to 2 µM.

On to `O=C(O)c1cc(-c2nc(-c3ccccc3C(F)(F)F)cs2)ccc1-c1ccccc1[N+](=O)[O-]` [Example 5, 2′-Nitro-4-[4-(2-trifluoromethyl-phenyl)-thiazol-2-yl]-biphenyl-2-carboxylic acid], for which the half-inhibitory concentration (IC50) was found to be 23 µM. Turning to `O=C(O)c1cc(-c2nc(-c3cccc(C(F)(F)F)c3)cs2)ccc1-c1ccccc1[N+](=O)[O-]` [Example 6, 2′-Nitro-4-[4-(3-trifluoromethyl-phenyl)-thiazol-2-yl]-biphenyl-2-carboxylic acid], the IC50 was 8.3 µM. Turning to `O=C(O)c1cc(-c2nc(-c3ccc(C(F)(F)F)cc3)cs2)ccc1-c1ccccc1[N+](=O)[O-]` [Example 7, 2′-Nitro-4-[4-(4-trifluoromethyl-phenyl)-thiazol-2-yl]-biphenyl-2-carboxylic acid], the half-inhibitory concentration (IC50) came to 2.4 µM.

The molecule `O=C(O)c1cc(-c2nc(-c3cc(C(F)(F)F)cc(C(F)(F)F)c3)cs2)ccc1-c1ccccc1[N+](=O)[O-]` [Example 8, 4-[4-(3,5-Bis-trifluoromethyl-phenyl)-thiazol-2-yl]-2′-nitro-biphenyl-2-carboxylic acid] yielded an IC50 of 2.5 µM.

In turn, `Cc1cc(-c2csc(-c3ccc(-c4ccccc4[N+](=O)[O-])c(C(=O)O)c3)n2)ccc1Cl` [Example 9, 4-[4-(4-Chloro-3-methyl-phenyl)-thiazol-2-yl]-2′-nitro-biphenyl-2-carboxylic acid] gave an IC50 of 5.9 µM. Compared with the last molecule, the IC50 is about 2.4-fold higher. `O=C(O)c1cc(-c2nc(-c3ccc(Cl)cc3Cl)cs2)ccc1-c1ccccc1[N+](=O)[O-]` [Example 10, 4-[4-(2,4-Dichloro-phenyl)-thiazol-2-yl]-2′-nitro-biphenyl-2-carboxylic acid]: the half-maximal inhibitory concentration (IC50) was determined as 3.5 µM. Then `O=C(O)c1cc(-c2nc(-c3cc(Cl)ccc3Cl)cs2)ccc1-c1ccccc1[N+](=O)[O-]` [Example 12, 4-[4-(2,5-Dichloro-phenyl)-thiazol-2-yl]-2′-nitro-biphenyl-2-carboxylic acid], with 2.9 µM; and `O=C(O)c1cc(-c2nc(-c3ccc(Cl)cc3)cs2)ccc1-c1ccccc1[N+](=O)[O-]` [Example 13, 4-[4-(4-Chloro-phenyl)-thiazol-2-yl]-2′-nitro-biphenyl-2-carboxylic acid], with 5.2 µM; and `O=C(O)c1cc(-c2nc(-c3ccc(Cl)c(Cl)c3)cs2)ccc1-c1cc(Cl)ccc1[N+](=O)[O-]` [Example 14, 5′-Chloro-4-[4-(3,4-dichloro-phenyl)-thiazol-2-yl]-2′-nitro-biphenyl-2-carboxylic acid], with 1.3 µM. `O=C(O)c1cc(-c2nc(-c3ccc(Cl)c(Cl)c3)cs2)ccc1-c1ccccc1[N+](=O)[O-]` [Example 15, 4-[4-(3,4-Dichloro-phenyl)-thiazol-2-yl]-2′-nitro-biphenyl-2-carboxylic acid]: the IC50 is 2.8 µM.

Consider `O=C(O)c1cc(-c2nc(-c3ccc(Cl)c(Cl)c3)cs2)ccc1-c1ccccc1[N+](=O)[O-]` [Example 16, 4-[4-(3,4-Dichloro-phenyl)-thiazol-2-yl]-2′-nitro-biphenyl-2-carboxylic acid], for which the IC50 turned out to be 0.5 µM. On to `O=C(O)c1cc(-c2nc(-c3cccc(Cl)c3)cs2)ccc1-c1ccccc1[N+](=O)[O-]` [Example 17, 4-[4-(3-Chloro-phenyl)-thiazol-2-yl]-2′-nitro-biphenyl-2-carboxylic acid], for which the half-maximal inhibitory concentration (IC50) came out at 3.1 µM. Turning to `O=C(O)c1cc(-c2nc(-c3ccc(F)c(Cl)c3)cs2)ccc1-c1ccccc1[N+](=O)[O-]` [Example 18, 4-[4-(3-Chloro-4-fluoro-phenyl)-thiazol-2-yl]-2′-nitro-biphenyl-2-carboxylic acid], the IC50 was 5 µM. Against the preceding molecule, the IC50 is about 1.6-fold higher. Turning to `O=C(O)c1cc(-c2nc(-c3c(F)cccc3F)cs2)ccc1-c1ccccc1[N+](=O)[O-]` [Example 20, 4-[4-(2,6-Difluoro-phenyl)-thiazol-2-yl]-2′-nitro-biphenyl-2-carboxylic acid], the IC50 was more than 80 µM.

Molecule `O=C(O)c1cc(-c2nc(-c3cccc(F)c3)cs2)ccc1-c1ccccc1[N+](=O)[O-]` [Example 24, 4-[4-(3-Fluoro-phenyl)-thiazol-2-yl]-2′-nitro-biphenyl-2-carboxylic acid] came in with an IC50 of 2.6 µM.

Molecule `O=C(O)c1cc(-c2nc(-c3ccc(Br)s3)cs2)ccc1-c1ccccc1[N+](=O)[O-]` [Example 25, 4-[4-(5-Bromo-thiophen-2-yl)-thiazol-2-yl]-2′-nitro-biphenyl-2-carboxylic acid] gave an IC50 of 4.4 µM.

Turning to `O=C(O)c1cc(-c2nc(-c3cccc(Br)c3)cs2)ccc1-c1ccccc1[N+](=O)[O-]` [Example 26, 4-[4-(3-Bromo-phenyl)-thiazol-2-yl]-2′-nitro-biphenyl-2-carboxylic acid], the half-inhibitory concentration (IC50) came to 3 µM. The molecule `O=C(O)c1cc(-c2nc(-c3ccc(Br)cc3)cs2)ccc1-c1ccccc1[N+](=O)[O-]` [Example 27, 4-[4-(4-Bromo-phenyl)-thiazol-2-yl]-2′-nitro-biphenyl-2-carboxylic acid] came in with an IC50 of 4 µM. On to `COc1ccc(-c2ccc(-c3nc(-c4ccc(Cl)c(Cl)c4)cs3)cc2C(=O)O)c([N+](=O)[O-])c1` [Example 28, 4-[4-(3,4-Dichloro-phenyl)-thiazol-2-yl]-4′-methoxy-2′-nitro-biphenyl-2-carboxylic acid], for which the half-inhibitory concentration (IC50) turned out to be 3.2 µM. In the case of `COc1ccc(-c2csc(-c3ccc(-c4ccccc4[N+](=O)[O-])c(C(=O)O)c3)n2)cc1` [Example 32, 4-[4-(4-Methoxy-phenyl)-thiazol-2-yl]-2′-nitro-biphenyl-2-carboxylic acid] it was 8.3 µM. `CS(=O)(=O)c1ccc(-c2csc(-c3ccc(-c4ccccc4[N+](=O)[O-])c(C(=O)O)c3)n2)cc1` [Example 33, 4-[4-(4-Methanesulfonyl-phenyl)-thiazol-2-yl]-2′-nitro-biphenyl-2-carboxylic acid] came in with an IC50 of more than 80 µM. `O=C(O)c1cc(-c2nc(-c3ccccn3)cs2)ccc1-c1ccccc1[N+](=O)[O-]` [Example 37, 2′-Nitro-4-(4-pyridin-2-yl-thiazol-2-yl)-biphenyl-2-carboxylic acid] yielded a half-maximal inhibitory concentration (IC50) of more than 80 µM. Turning to `O=C(O)c1cc(-c2nc(-c3cccnc3)cs2)ccc1-c1ccccc1[N+](=O)[O-]` [Example 38, 2′-Nitro-4-(4-pyridin-3-yl-thiazol-2-yl)-biphenyl-2-carboxylic acid], the half-inhibitory concentration (IC50) is more than 80 µM. `O=C(O)c1cc(-c2nc(-c3ccncc3)cs2)ccc1-c1ccccc1[N+](=O)[O-]` [Example 39, 2′-Nitro-4-(4-pyridin-4-yl-thiazol-2-yl)-biphenyl-2-carboxylic acid] registered an IC50 of more than 80 µM. On to `Cc1ccc(-c2csc(-c3ccc(-c4ccccc4[N+](=O)[O-])c(C(=O)O)c3)n2)c(C)c1` [Example 40, 4-[4-(2,4-Dimethyl-phenyl)-thiazol-2-yl]-2′-nitro-biphenyl-2-carboxylic acid], for which the IC50 was determined as 4.2 µM. In the case of `O=C(O)c1cc(-c2nc(-c3ccc(Cl)c(Cl)c3)cs2)ccc1-c1ccc([N+](=O)[O-])cc1` [Example 45, 4-[4-(3,4-Dichloro-phenyl)-thiazol-2-yl]-4′-nitro-biphenyl-2-carboxylic acid], the 50% inhibitory concentration (IC50) stood at 4.1 µM. In turn, `O=C(O)c1cc(-c2nc(-c3ccc(Cl)c(Cl)c3)cs2)ccc1-c1cccc([N+](=O)[O-])c1` [Example 46, 4-[4-(3,4-Dichloro-phenyl)-thiazol-2-yl]-3′-nitro-biphenyl-2-carboxylic acid] came in with an IC50 of 3.8 µM. `CCN(CC)CCCNC(=O)c1ccc(-c2ccc(-c3nc(-c4ccc(Cl)c(Cl)c4)cs3)cc2C(=O)O)cc1` [Example 47, 4-[4-(3,4-Dichloro-phenyl)-thiazol-2-yl]-4′-(3-diethylamino-propylcarbamoyl)-biphenyl-2-carboxylic acid] showed an IC50 of more than 80 µM. For the molecule `CN(C)CCCNC(=O)c1ccc(-c2ccc(-c3nc(-c4ccc(Cl)c(Cl)c4)cs3)cc2C(=O)O)cc1` [Example 48, 4-[4-(3,4-Dichloro-phenyl)-thiazol-2-yl]-4′-(3-dimethylamino-propylcarbamoyl)-biphenyl-2-carboxylic acid], the IC50 is more than 80 µM. The molecule `CN(C)CCNC(=O)c1ccc(-c2ccc(-c3nc(-c4ccc(Cl)c(Cl)c4)cs3)cc2C(=O)O)cc1` [Example 49, 4-[4-(3,4-Dichloro-phenyl)-thiazol-2-yl]-4′-(2-dimethylamino-ethylcarbamoyl)-biphenyl-2-carboxylic acid] came in with an IC50 of more than 80 µM. In the case of `Cn1nccc1CNC(=O)c1ccc(-c2ccc(-c3nc(-c4ccc(Cl)c(Cl)c4)cs3)cc2C(=O)O)cc1` [Example 50, 4-[4-(3,4-Dichloro-phenyl)-thiazol-2-yl]-4′-[(2-methyl-2H-pyrazol-3-ylmethyl)-carbamoyl]-biphenyl-2-carboxylic acid], the IC50 was determined as 7.8 µM. That is a single-digit micromolar value.
